Structures are written as SMILES.

The term Ki denotes the equilibrium dissociation constant of an inhibitor or competing ligand from its target.

The target of this assay is T1, human subtype 5 somatostatin receptor (SSTR5) (Homo sapiens, UniProt P35346).
T1 construct: host or cells: CHO cell line, stably transfected; membranes prepared by sonication and centrifugation
T1 sequence (P35346 whole entry): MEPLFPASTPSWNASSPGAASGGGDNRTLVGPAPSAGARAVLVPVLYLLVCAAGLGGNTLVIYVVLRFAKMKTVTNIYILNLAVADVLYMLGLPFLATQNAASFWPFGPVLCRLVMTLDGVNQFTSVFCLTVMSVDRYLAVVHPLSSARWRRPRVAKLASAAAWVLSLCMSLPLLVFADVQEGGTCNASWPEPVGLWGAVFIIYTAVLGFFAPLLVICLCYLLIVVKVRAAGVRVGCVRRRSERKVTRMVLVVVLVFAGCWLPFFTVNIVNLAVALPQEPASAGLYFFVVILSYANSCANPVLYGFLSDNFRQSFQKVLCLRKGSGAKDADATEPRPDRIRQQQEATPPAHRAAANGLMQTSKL
The assay is described as follows: radioligand replacement (binding) assay, 125I-labeled 11-Tyr somatostatin-14, membranes of CHO cells expressing SSTR5. Conditions: membranes of CHO cells stably transfected with human SSTR5; 0.05 nM 125I tracer; Ki calculated from IC50 by Cheng-Prussoff equation. Here is the method:
A CHO cell line stably transfected with a plasmid encoding the human subtype 5 somatostatin receptor (GenBank accession number D16827) was obtained from Euroscreen. Cells were cultured and used for binding and functional assays.
Membranes of these cells were prepared by sonication in the presence of protease inhibitors and subsequent fractionating centrifugation. The protein concentration in the membrane preparation was determined using a commercial kit (BCA kit, Pierce, USA). Membranes were stored at −80° C. until use. After thawing membranes were diluted in assay buffer (50 mM Tris-HCl at pH 7.4, 5 mM MgCl2 and 0.20% BSA) and subjected to dounce homogenization.
For binding studies, 0.1 mL membrane suspension, corresponding to approximately 6×10^−15 mol receptor, was incubated for 1 h at room temperature with 0.05 nM ^125I-labeled tracer (11-Tyr somatostatin-14, Perkin-Elmer) and either test compounds in varying concentrations or, for the determination of non-specific binding, 0.001 mM non-labeled somatostatin-14. The incubation was stopped by filtration through GF/B glassfiber filters and washing with ice-cold wash buffer (50 mM Tris-HCl at pH 7.4). The bound radioactivity was measured after application of a scintillation cocktail (Microscint 40) and expressed as disintegrations per minute (dpm).
The receptor concentration was determined in a prior saturation experiment where a fixed, arbitrary amount of membranes was incubated with a concentration range of radio-labeled tracer. This allows estimating the total number of specific binding sites per amount of protein (i.e., Bmax), typically between 1 and 5 pmol/mg.
The concentration of the test compound required to result in half maximal inhibition of binding of the radio-labeled tracer (IC50) was estimated from a concentration-versus-dpm graph. The binding affinity (Ki) was calculated from the IC50 by applying the Cheng-Prussoff equation for single binding sites.
On to `CCOc1cc(CN2CCC3(CC2)NC(=O)NC3=O)ccc1Cl` [Example 2, 8-(4-chloro-3-ethoxy-benzyl)-1,3,8-triaza-spiro[4.5]decane-2,4-dione], for which the Ki is 51 nM.
In the case of `CCOc1cc(CN2CCC3(CC2)NC(=O)NC3=O)cc(OCC)c1Cl` [Example 5, 8-(4-chloro-3,5-diethoxy-benzyl)-1,3,8-triaza-spiro[4.5]decane-2,4-dione], the Ki was 42 nM.
In the case of `CCOc1cc(CN2CCC3(CC2)NC(=O)NC3=O)cc(OCC)c1-n1cccc1` [Example 7, 8-(3,5-diethoxy-4-pyrrol-1-yl-benzyl)-1,3,8-triaza-spiro[4.5]decane-2,4-dione] it was 15 nM.
As for `CCOc1cc(CN2CCC3(CC2)CCN(c2ccccc2)C3=O)cc(OCC)c1Cl` [Example 11, 8-(4-chloro-3,5-diethoxy-benzyl)-2-phenyl-2,8-diaza-spiro[4.5]decan-1-one], the Ki was 228 nM.
With `CCOc1cc(CN2CCC3(CC2)N=C(c2ccccc2)NC3=O)ccc1C` [Example 15, 8-(3-ethoxy-4-methyl-benzyl)-2-phenyl-1,3,8-triaza-spiro[4.5]dec-1-en-4-one] the figure was 37 nM.
With `CCOc1cc(CN2CCC3(CC2)N=C(c2ccccc2)NC3=O)ccc1Cl` [Example 17, 8-(4-chloro-3-ethoxy-benzyl)-2-phenyl-1,3,8-triaza-spiro[4.5]dec-1-en-4-one] the figure was 50 nM; with `CCOc1cc(CN2CCC3(CC2)N=C(c2ccccc2)NC3=O)ccc1OC(F)F` [Example 26, 8-(4-difluoromethoxy-3-ethoxy-benzyl)-2-phenyl-1,3,8-triaza-spiro[4.5]dec-1-en-4-one], 226 nM.
As for `COc1ccc(CN2CCC3(CC2)N=C(c2ccccc2)NC3=O)cc1OCCF` [Example 29, 8-[3-(2-fluoro-ethoxy)-4-methoxy-benzyl]-2-phenyl-1,3,8-triaza-spiro[4.5]dec-1-en-4-one], the Ki is 717 nM.
With `COc1ccc(CN2CCC3(CC2)N=C(c2ccccc2)NC3=O)cc1OC1CCCC1` [Example 33, 8-(3-cyclopentyloxy-4-methoxy-benzyl)-2-phenyl-1,3,8-triaza-spiro[4.5]dec-1-en-4-one] the figure was 273 nM; with `CCOc1cc(CN2CCC3(CC2)N=C(c2ccccc2)NC3=O)cc(OCC)c1Br` [Example 38, 8-(4-bromo-3,5-diethoxy-benzyl)-2-phenyl-1,3,8-triaza-spiro[4.5]dec-1-en-4-one], 18 nM; with `CCOc1cc(CN2CCC(NC(=O)c3ccc(Cl)cc3)(C(N)=O)CC2)cc(OCC)c1Cl` [Example 42, 4-(4-chloro-benzoylamino)-1-(4-chloro-3,5-diethoxy-benzyl)-piperidine-4-carboxylic acid amide], 96 nM.
For `CCOc1cc(CN2CCC(C#N)(NC(=O)c3cncc(C)c3)CC2)cc(OCC)c1F` [Example 44, N-[4-cyano-1-(3,5-diethoxy-4-fluoro-benzyl)-piperidin-4-yl]-5-methyl-nicotinamide], the Ki is 342 nM.
As to `CCOc1cc(CN2CCC(C#N)(NC(=O)c3ccc(Cl)nc3)CC2)cc(OCC)c1-c1ccc(F)cc1` [Example 46, 6-chloro-N-[4-cyano-1-(2,6-diethoxy-4′-fluoro-biphenyl-4-ylmethyl)-piperidin-4-yl]-nicotinamide], the Ki was 66 nM.
